According to PMC7732531 (Frontiers in Pharmacology, 2020):
Like-named read-outs stand apart in the source and are kept apart here.

Experiments:
[1] = Bioavailability study in rats (i.v. and p.o.); type: in vivo; conditions: male, rat, plasma; for MRT last: read-out: MRT(0–t)
Description: Male SD rats (200-240 g) were obtained from Beijing Vital River Laboratory Animal Technology Co., Ltd. Animals were housed in a temperature- and humidity-controlled room with a 12 h light/dark cycle. They were fasted 12 h before the experiments and had ad libitum access to water. The animal experiments were conducted in the Beijing Center for Drug Safety Evaluation and according to a protocol (IACUC-DWZX-2020-691) approved by the Institutional Animal Care and Use Committee of the Center, which followed the guidelines of the Association for Assessment and Accreditation of Laboratory Animal Care International (AAALAC). […] Pharmacokinetic parameters were calculated by the noncompartmental method using WinNonlin 7.0 (Pharsight, CA). The area under the plasma concentration time curve (AUC) from time 0 to the last time point with a measurable concentration (AUC0-t) was calculated by trapezoidal method. Bioavailability (%F) was calculated as the ratio of the mean dose-normalized AUC values for oral and intravenous dosed groups [Fp.o. = […].)]. In vivo plasma clearance and volume of distribution were archived from the pharmacokinetic study via i.v. injection.

TSPO = test: In vitro TSPO binding, crude mitochondrial fraction from rat cerebellum; conditions: corrected by binding fraction of 10-volume brain homogenate
Source text: Unbound fractions of YL-IPA08 in rat plasma and brain homogenate were 0.6 and 0.49%, respectively. K p value of brain to plasma in rats was obtained under steady state to reach brain equilibrium in a transient dosing regimen. Then, K p,uu achieved 0.18. The unbound concentration of YL-IPA08 in brain can be estimated based on the plasma concentrations after rats receiving different dosages of YL-IPA08 via oral dosing (Table 4). For example, the unbound concentration of 6.5 pg/g in brain can be achieved after 1 mg/kg oral dosing. […] The unbound concentration in the incubates was obtained with 0.0108 nM (e.g., 4.9 pg/ml) by correcting the binding fraction of 10-volume brain homogenate (0.047).

CCN(Cc1ccccn1)C(=O)Cc1c(-c2ccc(Cl)c(Cl)c2)nc2cc(C)ccn12 [YL-IPA08]
AUC(0-inf) ([1]; SD, po, p.o. 1 mg/kg): 13.6 ± 4.37 ng·h/mL
AUC(0-t) ([1]; SD, po, p.o. 1 mg/kg): 12.5 ± 3.88 ng·h/mL
Cmax ([1]; SD, po, p.o. 1 mg/kg): 5.99 ± 1.36 ng/mL
Tmax ([1]; SD, po, p.o. 1 mg/kg): 3 ± 1.8 min
half-life ([1]; SD, po, p.o. 1 mg/kg): 1.66 ± 0.68 h
concentration at 0.083 h ([1]; SD, po, p.o. 1 mg/kg): 5.43 ± 1.96 ng/mL
concentration at 0.25 h ([1]; SD, po, p.o. 1 mg/kg): 5.22 ± 0.65 ng/mL
concentration at 0.5 h ([1]; SD, po, p.o. 1 mg/kg): 3.71 ± 0.79 ng/mL
concentration at 1 h ([1]; SD, po, p.o. 1 mg/kg): 3 ± 0.8 ng/mL
concentration at 2 h ([1]; SD, po, p.o. 1 mg/kg): 1.65 ± 0.44 ng/mL
concentration at 4 h ([1]; SD, po, p.o. 1 mg/kg): 1.02 ± 0.55 ng/mL
concentration at 6 h ([1]; SD, po, p.o. 1 mg/kg): 0.63 ± 0.31 ng/mL
concentration at 8 h ([1]; SD, po, p.o. 1 mg/kg): 0.63 ± 0.25 ng/mL
concentration at 12 h ([1]; SD, po, p.o. 1 mg/kg): 0.56 ± 0.27 ng/mL
MRT last ([1]; SD, po, p.o. 1 mg/kg): 3.35 ± 1.27 h
AUC(0-inf) ([1]; SD, po, p.o. 3 mg/kg): 39.9 ± 9.81 ng·h/mL
AUC(0-t) ([1]; SD, po, p.o. 3 mg/kg): 36.9 ± 9.57 ng·h/mL
Cmax ([1]; SD, po, p.o. 3 mg/kg): 19.2 ± 16.4 ng/mL
Tmax ([1]; SD, po, p.o. 3 mg/kg): 9 ± 10.2 min
half-life ([1]; SD, po, p.o. 3 mg/kg): 2.47 ± 1.54 h
concentration at 0.083 h ([1]; SD, po, p.o. 3 mg/kg): 18.9 ± 16.6 ng/mL
concentration at 0.25 h ([1]; SD, po, p.o. 3 mg/kg): 9.25 ± 4.57 ng/mL
concentration at 0.5 h ([1]; SD, po, p.o. 3 mg/kg): 7.42 ± 3.58 ng/mL
concentration at 1 h ([1]; SD, po, p.o. 3 mg/kg): 6.3 ± 3.02 ng/mL
concentration at 2 h ([1]; SD, po, p.o. 3 mg/kg): 4.07 ± 0.73 ng/mL
concentration at 4 h ([1]; SD, po, p.o. 3 mg/kg): 3.5 ± 0.73 ng/mL
concentration at 6 h ([1]; SD, po, p.o. 3 mg/kg): 2.35 ± 0.96 ng/mL
concentration at 8 h ([1]; SD, po, p.o. 3 mg/kg): 1.95 ± 0.51 ng/mL
concentration at 12 h ([1]; SD, po, p.o. 3 mg/kg): 0.84 ± 0.26 ng/mL
MRT last ([1]; SD, po, p.o. 3 mg/kg): 4.61 ± 1.49 h
AUC(0-inf) ([1]; SD, po, p.o. 10 mg/kg): 107 ± 30.2 ng·h/mL
AUC(0-t) ([1]; SD, po, p.o. 10 mg/kg): 104 ± 29.4 ng·h/mL
Cmax ([1]; SD, po, p.o. 10 mg/kg): 60.9 ± 44.9 ng/mL
Tmax ([1]; SD, po, p.o. 10 mg/kg): 9 ± 10.2 min
half-life ([1]; SD, po, p.o. 10 mg/kg): 2.31 ± 1.32 h
concentration at 0.083 h ([1]; SD, po, p.o. 10 mg/kg): 60.7 ± 45.1 ng/mL
concentration at 0.25 h ([1]; SD, po, p.o. 10 mg/kg): 20.5 ± 8.3 ng/mL
concentration at 0.5 h ([1]; SD, po, p.o. 10 mg/kg): 15.9 ± 4.1 ng/mL
concentration at 1 h ([1]; SD, po, p.o. 10 mg/kg): 10.2 ± 3.5 ng/mL
concentration at 2 h ([1]; SD, po, p.o. 10 mg/kg): 7.1 ± 2.7 ng/mL
concentration at 4 h ([1]; SD, po, p.o. 10 mg/kg): 5.63 ± 2.23 ng/mL
concentration at 6 h ([1]; SD, po, p.o. 10 mg/kg): 4.39 ± 2.71 ng/mL
concentration at 8 h ([1]; SD, po, p.o. 10 mg/kg): 3.61 ± 2.13 ng/mL
concentration at 12 h ([1]; SD, po, p.o. 10 mg/kg): 3.18 ± 1.43 ng/mL
concentration at 24 h ([1]; SD, po, p.o. 10 mg/kg, 24 h): 1.04 ± 0.66 ng/mL
MRT last ([1]; SD, po, p.o. 10 mg/kg): 7.73 ± 2.79 h
bioavailability ([1]; SD, po, printed in the p.o. 3 mg/kg column, read-out: F): 5.59%
bioavailability ([1]; Sprague-Dawley (SD), oral administration (1–10 mg/kg), read-out: bioavailability): ~6%
unbound concentration in the incubates / in vitro TSPO-binding activity (TSPO): 4.9 pg/mL
